According to publication PMC5343402, “Gossypol has anti-cancer effects by dual-targeting MDM2 and VEGF in human breast cancer” (Breast Cancer Research : BCR, 2017):

Molecular target: T1, MDM2 (RING protein) (Homo sapiens, UniProt Q00987)
T1 construct: MDM2 RING protein
Assay: isothermal titration calorimetry (auto-iTC200, one-site fit)
Format: binding

T1 sequence (Q00987 whole entry): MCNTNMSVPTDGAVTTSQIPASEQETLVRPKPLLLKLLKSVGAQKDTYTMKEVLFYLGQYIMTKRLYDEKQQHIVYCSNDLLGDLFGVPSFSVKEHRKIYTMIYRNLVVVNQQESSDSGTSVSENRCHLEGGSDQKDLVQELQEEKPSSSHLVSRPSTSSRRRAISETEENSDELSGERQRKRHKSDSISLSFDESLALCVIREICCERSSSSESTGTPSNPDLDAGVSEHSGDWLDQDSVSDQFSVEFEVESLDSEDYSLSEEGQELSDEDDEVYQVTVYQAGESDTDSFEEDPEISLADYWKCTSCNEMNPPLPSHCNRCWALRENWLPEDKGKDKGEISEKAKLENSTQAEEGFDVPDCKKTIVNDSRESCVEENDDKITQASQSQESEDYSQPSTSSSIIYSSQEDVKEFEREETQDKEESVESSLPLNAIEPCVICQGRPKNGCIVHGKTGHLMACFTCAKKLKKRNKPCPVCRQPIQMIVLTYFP

Cc1cc2c(C(C)C)c(O)c(O)c(C=O)c2c(O)c1-c1c(C)cc2c(C(C)C)c(O)c(O)c(C=O)c2c1O [MX11, gossypol]
Kd: 5.21 µM
